According to ChEMBL document CHEMBL1130735, “A paclitaxel analogue with a 2(3-->20)abeotaxane skeleton: synthesis and biological evaluation” (Bioorg Med Chem Lett, 1998):
In brackets after ≈: the same amount, converted by molar mass.

Legend:
Format in all cases: functional, cell-based
[1] = Cytotoxicity was evaluated against […] cells
[2] = Cytotoxicity was evaluated against MEL28 melanoma cells; conditions: Homo sapiens, SK-MEL-28
HT-29 = test: Cytotoxicity was evaluated against HT-29 human colon adenocarcinoma cells
P388 = test: Cytotoxicity was evaluated against P388 mouse lymphoma cells

Row | Structure (SMILES) | IC50 [1] [µg/mL] | IC50 [2] [µg/mL] | IC50 (HT-29) [µg/mL] | IC50 (P388) [µg/mL]
1 | CC(=O)O[C@H]1C[C@H]2[C@@H](OC(C)=O)/C=C3\C[C@](C)(C(=O)[C@H](O)C(=C1C)C2(C)C)[C@@H](O)C[C@@H]3O | > 10 | > 10 | > 10 | > 10
2 | CC1=C2[C@@H](O)C(=O)[C@@]3(C)CC(C[C@H](OC(=O)c4ccccc4)[C@H](C[C@@H]1OC(=O)[C@H](O)[C@H](NC(=O)c1ccccc1)c1ccccc1)C2(C)C)[C@@H](O)C[C@@H]3O | 6 (≈ 8.11 µM) | 6 (≈ 8.11 µM) | 6 (≈ 8.11 µM) | 6 (≈ 8.11 µM)
3 | CC(=O)O[C@H]1C(=O)[C@@]2(C)[C@H]([C@H](OC(=O)c3ccccc3)[C@]3(O)C[C@H](OC(=O)[C@H](O)[C@@H](NC(=O)c4ccccc4)c4ccccc4)C(C)=C1C3(C)C)[C@]1(OC(C)=O)CO[C@@H]1C[C@@H]2O [PACLITAXEL] | 0.002 (≈ 0.00234 µM) | 0.002 (≈ 0.00234 µM) | 0.002 (≈ 0.00234 µM) | 0.2 (≈ 0.234 µM)
